The assay concerns the target T1, human TSHR (Homo sapiens, UniProt P16473).
T1 construct: expressed in transfected cells
The assay can be described thus: Homogeneous Time Resolved Fluorescence (HTRF) cAMP assay, TSHR cell line. The settings on record: for AC50: HTRF cAMP, TSHR cell line, 30 minute incubation; for Emax: read-out: Maximum Activity compared to TSH, 100% activity = response of 30 mU/ml TSH, 0% = DMSO control; for Maximum Activity compared to TSH: 100% activity = response of 30 mU/ml TSH, 0% = DMSO control, in %. Format: cell-based. (Time-resolved FRET reads energy transfer from a long-lived donor to a nearby acceptor.)

Like-named read-outs stand apart in the source and are kept apart here.

T1 sequence (P16473 21-764): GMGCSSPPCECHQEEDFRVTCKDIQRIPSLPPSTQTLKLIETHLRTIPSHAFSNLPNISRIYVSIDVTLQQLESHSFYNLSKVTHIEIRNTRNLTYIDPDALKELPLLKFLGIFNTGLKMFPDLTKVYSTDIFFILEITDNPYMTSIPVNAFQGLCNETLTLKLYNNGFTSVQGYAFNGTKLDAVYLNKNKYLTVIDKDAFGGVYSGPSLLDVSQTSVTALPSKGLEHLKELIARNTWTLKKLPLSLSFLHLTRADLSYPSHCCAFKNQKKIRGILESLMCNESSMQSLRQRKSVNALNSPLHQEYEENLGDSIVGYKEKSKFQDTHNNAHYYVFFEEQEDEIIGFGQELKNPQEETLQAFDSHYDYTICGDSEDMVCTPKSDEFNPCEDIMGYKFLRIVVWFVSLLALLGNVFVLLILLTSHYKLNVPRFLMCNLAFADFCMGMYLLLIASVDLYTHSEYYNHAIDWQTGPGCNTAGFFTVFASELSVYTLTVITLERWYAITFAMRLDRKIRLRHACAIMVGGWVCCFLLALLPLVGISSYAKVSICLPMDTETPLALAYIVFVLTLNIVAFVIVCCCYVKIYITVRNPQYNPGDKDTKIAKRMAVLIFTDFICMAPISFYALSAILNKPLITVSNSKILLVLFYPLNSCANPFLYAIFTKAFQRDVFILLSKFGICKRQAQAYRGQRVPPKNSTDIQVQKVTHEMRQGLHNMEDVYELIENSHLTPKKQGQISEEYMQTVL

For the molecule `COc1ccc(C2Nc3ccccc3C(=O)N2Cc2ccccc2)cc1COc1ccccc1OC` (stereo not drawn) [Structure 172], the AC50 entry was “inactive”.

As for `COc1ccc(-c2nc3ccccc3c(=O)n2Cc2ccccc2)cc1CNc1ccc(NC(C)=O)cc1` [Structure 173], the Emax stood at 30%. For the same molecule, the AC50 (read-out: AC50) turned out to be 15.8 µM.

As for `O=C1CC(c2ccco2)CC2=C1C(c1ccc(O)cc1)n1nc(C(F)(F)F)nc1N2` (stereo not drawn) [Structure 174], the concentration at half-maximal activity (AC50) result is “inactive”.

As for `COc1ccc(C2Nc3ccccc3C(=O)N2Cc2ccc(C(C)(C)C)cc2)cc1COc1ccc(NC(C)=O)cc1` (stereo not drawn) [Structure 175], the half-maximal activity concentration (AC50) result was “inactive”. Turning to `CCC(=O)Nc1ccc(OCc2cc(C3Nc4ccccc4C(=O)N3Cc3ccccc3)ccc2OC)cc1` (stereo not drawn) [Structure 177], the Emax was determined as 29%. In addition, the concentration at half-maximal activity (AC50) (read-out: AC50) came to 5.62 µM. For `COc1ccc(C2Nc3ccccc3C(=O)N2Cc2ccco2)cc1` (stereo not drawn) [Structure 178], the concentration at half-maximal activity (AC50) result was “inactive”. Same read-out and setting: with `COc1ccc(-c2nc3ccccc3n2Cc2ccccc2)cc1COc1ccc(NC(C)=O)cc1` [Structure 179] the entry was “inactive”.

Regarding `O=C1c2ccccc2NC(c2ccccc2O)N1Cc1ccccc1` (stereo not drawn) [Structure 180], the AC50 result was “inactive”. Consider `COc1ccc(-c2nc3ccc(Cl)cc3c(=O)n2Cc2ccccc2)cc1COc1ccc(NC(C)=O)cc1` [Structure 181], for which the Emax amounted to 22.5%. Further, under “read-out: AC50”, the AC50 worked out at 3.98 µM. In the case of `COc1ccc(C2Nc3ccccc3C(=O)N2Cc2ccco2)cc1COc1c(C)cccc1C` (stereo not drawn) [Structure 182], the half-maximal activity concentration (AC50) result is “inactive”. Turning to `O=C1CC(c2ccco2)CC2=C1C(c1ccncc1)n1nc(C(F)(F)F)nc1N2` (stereo not drawn) [Structure 183], the AC50 entry was “inactive”. Still for that read-out and setting: with `COc1ccc(C=O)cc1COc1ccc(NC(C)=O)cc1` [Structure 184] the entry was “inactive”; with `COc1ccc(C2Nc3ccccc3C(=O)N2CCCN(C)C)cc1COc1ccc(NC(C)=O)cc1` (stereo not drawn) [Structure 186], “inactive”; with `COc1ccc(C2Nc3ccc(Cl)cc3C(=O)N2Cc2ccccc2)cc1COc1ccc(C(N)=O)cc1` (stereo not drawn) [Structure 187], “inactive”. The same measure, in the same setting: with `COc1ccc(C2Nc3ccccc3C(=O)N2Cc2ccco2)cc1COc1ccc([N+](=O)[O-])cc1` (stereo not drawn) [Structure 188] the entry was “inactive”.

As for `COc1ccc(CN(Cc2ccccc2)C(=O)c2ccccc2O)cc1` [Structure 189], the “Maximum Activity compared to TSH” value was 24.00. The AC50 (read-out: AC50) was 22.4 µM.

With `COc1ccc(-c2nc3ccc(NC(C)=O)cc3c(=O)n2Cc2ccccc2)cc1COc1ccc(NC(C)=O)cc1` [Structure 191], the AC50 entry is “inactive”.

With `O=c1c2ccccc2nc(-c2ccccc2O)n1Cc1ccccc1` [Structure 192], the half-maximal activity concentration (AC50) result was “inactive”. `CC(=O)Nc1cccc(OCc2cccc(C3Nc4ccccc4C(=O)N3Cc3ccco3)c2)c1` (stereo not drawn) [Structure 193]: the AC50 result is “inactive”. Turning to `O=C(c1ccccc1O)N(Cc1ccccc1)Cc1ccccc1` [Structure 194], the “Maximum Activity compared to TSH” value turned out to be 27.50. In addition, the concentration at half-maximal activity (AC50) (read-out: AC50) stood at 31.6 µM. Consider `COc1ccc(-c2nc3ccccc3c(=O)n2Cc2ccccc2)cc1OCc1ccc(NC(C)=O)cc1` [Structure 195], for which the half-maximal activity concentration (AC50) result was “inactive”. Same read-out and setting: with `COc1ccc(C2Nc3ccccc3C(=O)N2Cc2ccccc2)cc1COc1ccc(C)cc1` (stereo not drawn) [Structure 196] the entry was “inactive”. Regarding `COc1ccc(C2Nc3ccccc3C(=O)N2Cc2ccc(C(F)(F)F)cc2)cc1COc1ccc(NC(C)=O)cc1` (stereo not drawn) [Structure 197], the Emax is 17%. Further, the half-maximal activity concentration (AC50) (read-out: AC50) came to 2.82 µM. The matching figures for `COc1ccc(C2Nc3ccccc3C(=O)N2Cc2ccccc2OC)cc1COc1ccc(NC(C)=O)cc1` (stereo not drawn) [Structure 198]: 18% and 20 µM. `COc1ccc(C2Nc3ccccc3C(=O)N2Cc2ccccc2)cc1COc1cccc(C)c1` (stereo not drawn) [Structure 200]: the “Maximum Activity compared to TSH” value was 38.00. Moreover, the AC50 (read-out: AC50) came out at 28.2 µM. As to `COc1ccc(C2Nc3ccccc3C(=O)N2Cc2ccccc2C)cc1COc1ccc(NC(C)=O)cc1` (stereo not drawn) [Structure 201], the half-maximal activity concentration (AC50) result was “inactive”. The same measure, in the same setting: then `COc1ccc(C(=O)O)cc1COc1ccc(NC(C)=O)cc1` [Structure 202], with “inactive”. Still for that read-out and setting: with `COc1ccc(C(=O)C2C(=O)C(=O)N(Cc3ccco3)C2c2cccs2)cc1` (stereo not drawn) [Structure 205] the entry was “inactive”. Still for that read-out and setting: with `COc1ccc(-c2nc3ccc(Cl)cc3c(=O)n2Cc2ccccc2)cc1COc1ccc(NC(C)=O)cc1` [Structure 206] the entry was “inactive”. In the case of `COc1ccc(C2Nc3ccccc3C(=O)N2Cc2ccco2)cc1COc1ccccc1` (stereo not drawn) [Structure 207], the concentration at half-maximal activity (AC50) result is “inactive”. Same read-out and setting: then `COc1ccc(C2Nc3ccccc3C(=O)N2Cc2ccccc2)cc1COc1cccc(C(F)(F)F)c1` (stereo not drawn) [Structure 208], with “inactive”; and `COc1ccc(C2Nc3ccccc3C(=O)N2CCO)cc1COc1ccc(NC(C)=O)cc1` (stereo not drawn) [Structure 209], with “inactive”; and `COc1ccc(O)c(-c2nc3ccccc3c(=O)n2Cc2ccccc2)c1` [Structure 211], with “inactive”. As to `O=C1CC(c2ccco2)CC2=C1C(c1ccc(O)cc1)n1nc(C(F)(F)F)nc1N2` (stereo not drawn) [Structure 213], the AC50 result was “inactive”.

Turning to `COc1ccc(C2Nc3ccccc3C(=O)N2Cc2ccc(C(C)(C)C)cc2)cc1COc1ccc(NC(C)=O)cc1` (stereo not drawn) [Structure 214], the half-maximal activity concentration (AC50) entry was “inactive”. For the molecule `COc1ccc(CN(Cc2ccccc2)C(=O)Nc2ccccc2)cc1COc1ccc(NC(C)=O)cc1` [Structure 215], the “Maximum Activity compared to TSH” value came to 20.00.

Take `COc1ccc(O)c(C2Nc3ccccc3C(=O)N2Cc2ccccc2)c1` (stereo not drawn) [Structure 216]: the AC50 entry was “inactive”. The same measure, in the same setting: with `COc1ccc2c(c1OC)C(=O)N1c3ccccc3C(=O)N(Cc3ccco3)C21` (stereo not drawn) [Structure 217] the entry was “inactive”. As for `COc1ccc(-c2nc3cccc(OC)c3c(=O)n2Cc2ccccc2)cc1COc1ccc(NC(C)=O)cc1` [Structure 218], the Emax came to 38%. The half-maximal activity concentration (AC50) (read-out: AC50) was 39.8 µM. Regarding `O=C(c1ccccc1O)N(Cc1ccco1)Cc1ccco1` [Structure 219], the concentration at half-maximal activity (AC50) result was “inactive”. As to `COc1ccc(CN(Cc2ccccc2)C(=O)c2ccccc2O)cc1COc1ccc(NC(C)=O)cc1` [Structure 220], the “Maximum Activity compared to TSH” value came to 32.00. The AC50 (read-out: AC50) was determined as 17.8 µM.

For the molecule `COc1ccc(C2Nc3ccccc3C(=O)N2CCO)cc1COc1ccc(NC(C)=O)cc1` (stereo not drawn) [Structure 221], the AC50 result was “inactive”. The same measure, in the same setting: then `COc1ccc(CN(Cc2ccccc2)[S+](=O)([O-])c2ccccc2)cc1COc1ccc(NC(C)=O)cc1` [Structure 223], with “inactive”. Same read-out and setting: then `COc1ccc(C2Nc3ccccc3C(=O)N2CCc2ccc(Cl)cc2Cl)cc1COc1ccc(NC(C)=O)cc1` (stereo not drawn) [Structure 224], with “inactive”. On the same count and under the same terms, then `COc1ccc(C2Nc3ccccc3C(=O)N2CCc2ccc(Cl)cc2Cl)cc1COc1ccc(NC(C)=O)cc1` (stereo not drawn) [Structure 225], with “inactive”; and `COc1ccc(C2Nc3ccccc3C(=O)N2Cc2ccccc2)cc1COc1ccc(NC(C)=O)cc1` (stereo not drawn) [Structure 227], with “inactive”; and `COc1ccc(C2Nc3ccccc3C(=O)N2Cc2ccccc2)cc1OCc1ccc(NC(C)=O)cc1` (stereo not drawn) [Structure 228], with “inactive”.

In general, AC50 refers to the concentration giving half of the maximal activity seen.

The values above are taken from US9458141B2, “Low molecular weight thyroid stimulating hormone receptor (TSHR) agonists” (The United States of America, as represented by the …, priority 2008, dated 2016).
